In US8802597B2, “Herbicidal pyrimidines” (E I du Pont de Nemours and Company, priority 2003, dated 2014):

Columns and labels:
Assay type in all cases: in vivo
[1] = tested on: velvetleaf (Abutilon theophrasti); assay: Test A pre/postemergence
Outline: (§1)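 Visual injury scored 0–100 (0 = no effect, 100 = complete control) against untreated controls after about ten days in the greenhouse. Compounds, formulated in non-phytotoxic solvent plus surfactant, were applied preemergence as a directed soil spray and postemergence at the 1- to 2-leaf stage (2–10 cm).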

[2] = tested on: giant foxtail (Setaria faberi); assay: Test A pre/postemergence
Outline: as §1

[3] = tested on: redroot pigweed (Amaranthus retroflexus); assay: Test A pre/postemergence
Outline: as §1

[4] = tested on: crabgrass (Digitaria sanguinalis); assay: Test A pre/postemergence
Outline: as §1

[5] = tested on: barnyardgrass (Echinochloa crus-galli); assay: Test A pre/postemergence
Outline: as §1

[6] = tested on: morningglory (Ipomoea spp.); assay: Test A pre/postemergence
Outline: as §1

[7] = tested on: rice flatsedge (Cyperus iria); assay: Test E flooded paddy water application; conditions: Flood, 21 days, scale 0 to 100 (0 no effect, 100 complete control)
Excerpt: (§2) Three plastic pots (ca. 16-cm diameter) per rate were partially filled with sterilized Tama silt loam soil comprising a 35:50:15 ratio of sand, silt and clay and 2.6% organic matter. Separate plantings for each of the three pots were as follows. Seeds from the U.S. of ducksalad (Heteranthera limosa), smallflower umbrella sedge (Cyperus difformis) and purple redstem (Ammannia coccinea), were planted into one 16-cm pot for each rate. Seeds from the U.S. of rice flatsedge (Cyperus iria), bearded (brdd.) sprangletop (Leptochloa fusca ssp. fascicularis), one stand of 9 or 10 water seeded rice seedlings (Oryza sativa cv. ‘Japonica-M202’), and one stand of 6 transplanted rice seedlings (Oryza sativa cv. ‘Japonica-M202’) were planted into one 16-cm pot for each rate. Seeds from the U.S. of barnyardgrass (Echinochloa crus-galli), late watergrass (Echinochloa oryzicola), early watergrass (Echinochloa oryzoides) and junglerice (Echinochloa colona) were planted into one 16-cm pot for each rate. Plantings were sequential so that crop and weed species were at the 2.0 to 2.5-leaf stage at time of treatment.
(§3) Potted plants were grown in a greenhouse with day/night temperature settings of 29.5/26.7° C., and supplemental balanced lighting was provided to maintain a 16-hour photoperiod. Test pots were maintained in the greenhouse until test completion.
(§4) At time of treatment, test pots were flooded to 3 cm above the soil surface, treated by application of test compounds directly to the paddy water, and then maintained at that water depth for the duration of the test. Effects of treatments on rice and weeds were visually evaluated by comparison to untreated controls after 21 days. Plant response ratings, summarized in Table E, are based on a scale of 0 to 100 where 0 is no effect and 100 is complete control. A dash (-) response means no test result.

[8] = tested on: bearded (brdd.) sprangletop (Leptochloa fusca ssp. fascicularis); assay: Test E flooded paddy water application; conditions: Flood, 21 days, scale 0 to 100 (0 no effect, 100 complete control)
Excerpt: as §2, §3, §4

[9] = tested on: junglerice (Echinochloa colona); assay: Test E flooded paddy water application; conditions: Flood, 21 days, scale 0 to 100 (0 no effect, 100 complete control)
Excerpt: as §2, §3, §4

[10] = tested on: early watergrass (Echinochloa oryzoides); assay: Test E flooded paddy water application; conditions: Flood, 21 days, scale 0 to 100 (0 no effect, 100 complete control)
Excerpt: as §2, §3, §4

[11] = tested on: transplanted rice seedlings (Oryza sativa cv. ‘Japonica-M202’); assay: Test E flooded paddy water application; conditions: Flood, 21 days, scale 0 to 100 (0 no effect, 100 complete control)
Excerpt: as §2, §3, §4

[12] = tested on: smallflower umbrella sedge (Cyperus difformis); assay: Test E flooded paddy water application; conditions: Flood, 21 days, scale 0 to 100 (0 no effect, 100 complete control)
Excerpt: as §2, §3, §4

[13] = tested on: barnyardgrass (Echinochloa crus-galli); assay: Test E flooded paddy water application; conditions: Flood, 21 days, scale 0 to 100 (0 no effect, 100 complete control)
Excerpt: as §2, §3, §4

[14] = tested on: water seeded rice seedlings (Oryza sativa cv. ‘Japonica-M202’); assay: Test E flooded paddy water application; conditions: Flood, 21 days, scale 0 to 100 (0 no effect, 100 complete control)
Excerpt: as §2, §3, §4

[15] = tested on: ducksalad (Heteranthera limosa); assay: Test E flooded paddy water application; conditions: Flood, 21 days, scale 0 to 100 (0 no effect, 100 complete control)
Excerpt: as §2, §3, §4

[16] = tested on: late watergrass (Echinochloa oryzicola); assay: Test E flooded paddy water application; conditions: Flood, 21 days, scale 0 to 100 (0 no effect, 100 complete control)
Excerpt: as §2, §3, §4

[17] = tested on: purple redstem (Ammannia coccinea); assay: Test E flooded paddy water application; conditions: Flood, 21 days, scale 0 to 100 (0 no effect, 100 complete control)
Excerpt: as §2, §3, §4

[18] = Postemergence, 125 g ai/ha, 0 to 100 scale (0 no effect, 100 complete control)
[19] = Postemergence, 500 g ai/ha, 0 to 100 scale (0 no effect, 100 complete control)
[20] = Preemergence, 125 g ai/ha, 0 to 100 scale where 0 is no effect and 100 is complete control, approximately ten days
[21] = Preemergence, 500 g ai/ha, 0 to 100 scale where 0 is no effect and 100 is complete control, approximately ten days

CCOC(=O)c1nc(-c2ccc(C)cc2)nc(N)c1Cl [Compound 62]
Plant response rating, Velvetleaf [1, 18]: 90
Plant response rating, Velvetleaf [1, 19]: 95
Plant response rating, Velvetleaf [1, 20]: 0
Plant response rating, Velvetleaf [1, 21]: 75
Plant response rating, Foxtail, Giant [2, 18]: 0
Plant response rating, Foxtail, Giant [2, 19]: 80
Plant response rating, Foxtail, Giant [2, 20]: 0
Plant response rating, Foxtail, Giant [2, 21]: 0
Plant response rating, Pigweed [3, 18]: 30
Plant response rating, Pigweed [3, 19]: 60
Plant response rating, Pigweed [3, 20]: 0
Plant response rating, Pigweed [3, 21]: 75
Plant response rating, Crabgrass [4, 18]: 0
Plant response rating, Crabgrass [4, 19]: 35
Plant response rating, Crabgrass [4, 20]: 0
Plant response rating, Crabgrass [4, 21]: 60
Plant response rating, Barnyardgrass [5, 18]: 15
Plant response rating, Barnyardgrass [5, 19]: 80
Plant response rating, Barnyardgrass [5, 20]: 0
Plant response rating, Barnyardgrass [5, 21]: 45
Plant response rating, Morningglory [6, 18]: 10
Plant response rating, Morningglory [6, 19]: 35
Plant response rating, Morningglory [6, 20]: 0
Plant response rating, Morningglory [6, 21]: 35
Flatsedge, Rice plant response rating ([7]; 32 g ai/ha): 0
Flatsedge, Rice plant response rating ([7]; 64 g ai/ha): 0
Flatsedge, Rice plant response rating ([7]; 125 g ai/ha): 45
Flatsedge, Rice plant response rating ([7]; 250 g ai/ha): 65
Flatsedge, Rice plant response rating ([7]; 500 g ai/ha): 100
Sprangletop, Brdd. plant response rating ([8]; 32 g ai/ha): 0
Sprangletop, Brdd. plant response rating ([8]; 64 g ai/ha): 0
Sprangletop, Brdd. plant response rating ([8]; 125 g ai/ha): 30
Sprangletop, Brdd. plant response rating ([8]; 250 g ai/ha): 45
Sprangletop, Brdd. plant response rating ([8]; 500 g ai/ha): 75
Junglerice plant response rating ([9]; 32 g ai/ha): 20
Junglerice plant response rating ([9]; 64 g ai/ha): 30
Junglerice plant response rating ([9]; 125 g ai/ha): 40
Junglerice plant response rating ([9]; 250 g ai/ha): 50
Junglerice plant response rating ([9]; 500 g ai/ha): 65
Watergrass, Early plant response rating ([10]; 32 g ai/ha): 0
Watergrass, Early plant response rating ([10]; 64 g ai/ha): 0
Watergrass, Early plant response rating ([10]; 125 g ai/ha): 0
Watergrass, Early plant response rating ([10]; 250 g ai/ha): 0
Watergrass, Early plant response rating ([10]; 500 g ai/ha): 0
Rice, Transplanted plant response rating ([11]; 32 g ai/ha): 0
Rice, Transplanted plant response rating ([11]; 64 g ai/ha): 0
Rice, Transplanted plant response rating ([11]; 125 g ai/ha): 0
Rice, Transplanted plant response rating ([11]; 250 g ai/ha): 0
Rice, Transplanted plant response rating ([11]; 500 g ai/ha): 30
Sedge, Umbrella plant response rating ([12]; 32 g ai/ha): 70
Sedge, Umbrella plant response rating ([12]; 64 g ai/ha): 80
Sedge, Umbrella plant response rating ([12]; 125 g ai/ha): 95
Sedge, Umbrella plant response rating ([12]; 250 g ai/ha): 100
Sedge, Umbrella plant response rating ([12]; 500 g ai/ha): 100
Barnyardgrass plant response rating ([13]; 32 g ai/ha): 0
Barnyardgrass plant response rating ([13]; 64 g ai/ha): 0
Barnyardgrass plant response rating ([13]; 125 g ai/ha): 0
Barnyardgrass plant response rating ([13]; 250 g ai/ha): 50
Barnyardgrass plant response rating ([13]; 500 g ai/ha): 100
Rice, Water Seeded plant response rating ([14]; 32 g ai/ha): 0
Rice, Water Seeded plant response rating ([14]; 64 g ai/ha): 0
Rice, Water Seeded plant response rating ([14]; 125 g ai/ha): 0
Rice, Water Seeded plant response rating ([14]; 250 g ai/ha): 10
Rice, Water Seeded plant response rating ([14]; 500 g ai/ha): 60
Ducksalad plant response rating ([15]; 32 g ai/ha): 100
Ducksalad plant response rating ([15]; 64 g ai/ha): 100
Ducksalad plant response rating ([15]; 125 g ai/ha): 100
Ducksalad plant response rating ([15]; 250 g ai/ha): 100
Ducksalad plant response rating ([15]; 500 g ai/ha): 100
Watergrass, Late plant response rating ([16]; 32 g ai/ha): 0
Watergrass, Late plant response rating ([16]; 64 g ai/ha): 20
Watergrass, Late plant response rating ([16]; 125 g ai/ha): 20
Watergrass, Late plant response rating ([16]; 250 g ai/ha): 20
Watergrass, Late plant response rating ([16]; 500 g ai/ha): 20
Redstem plant response rating ([17]; 32 g ai/ha): 75
Redstem plant response rating ([17]; 64 g ai/ha): 85
Redstem plant response rating ([17]; 125 g ai/ha): 85
Redstem plant response rating ([17]; 250 g ai/ha): 95
Redstem plant response rating ([17]; 500 g ai/ha): 100
